According to ChEMBL document CHEMBL1201862, “PubChem BioAssay data set” (2004):
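48-hour exposure; five concentrations; linearly interpolated endpoints. Here, GI50 denotes the concentration required for 50% inhibition of growth.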 Calls of active or inactive are those of the source. Rule as the data show it: active = GI50 up to about 1.1 µM and inactive = higher.

Columns and labels:
Test in all cases: growth of human tumour cells (NCI), 48 h
[1] = tested on: 786-0
[2] = tested on: A498
[3] = tested on: A549
[4] = tested on: ACHN
[5] = tested on: CCRF-CEM
[6] = tested on: COLO 205
[7] = tested on: DLD-1
[8] = tested on: DMS-114
[9] = tested on: HCC 2998
[10] = tested on: HCT-116
[11] = tested on: HCT-15
[12] = tested on: HT-29
[13] = tested on: IGROV-1
[14] = tested on: K562
[15] = tested on: KM-20L2
[16] = tested on: KM12
[17] = tested on: LOX IMVI
[18] = tested on: LXFL 529
[19] = tested on: M14
[20] = tested on: MOLT-4
[21] = tested on: NCI-H23
[22] = tested on: NCI-H460
[23] = tested on: NCI-H522
[24] = tested on: OVCAR-3
[25] = tested on: OVCAR-4
[26] = tested on: OVCAR-5
[27] = tested on: OVCAR-8
[28] = tested on: RPMI-8226
[29] = tested on: RXF 393
[30] = tested on: SF-268
[31] = tested on: SF-539
[32] = tested on: SK-MEL-28
[33] = tested on: SK-MEL-5
[34] = tested on: SN12C
[35] = tested on: SNB-75
[36] = tested on: SW-620
[37] = tested on: TK-10
[38] = tested on: U-251
[39] = tested on: UACC-62
[40] = tested on: UO-31
[41] = tested on: EKVX
[42] = tested on: HL-60
[43] = tested on: HOP-18
[44] = tested on: HOP-62
[45] = tested on: HOP-92
[46] = tested on: M19-MEL
[47] = tested on: Malme-3M
[48] = tested on: SF-295
[49] = tested on: SK-MEL-2
[50] = tested on: SNB-19
[51] = tested on: SNB-78
[52] = tested on: SR
[53] = tested on: UACC-257

SMILES: CN1CCN(CN2C(=O)C3C4C=CC(C3C2=O)C2C3C(=O)N(CN5CCN(C)CC5)C(=O)C3C42)CC1 (configuration not stated)
- GI50 [1]: 18.4 µM (inactive)
- GI50 [2]: > 100 µM (inactive)
- GI50 [3]: 18.6 µM (inactive)
- GI50 [4]: 19.1 µM (inactive)
- GI50 [5]: 22 µM (inactive)
- GI50 [6]: 20.2 µM (inactive)
- GI50 [7]: 24.1 µM (inactive)
- GI50 [8]: 19.6 µM (inactive)
- GI50 [9]: 27.7 µM (inactive)
- GI50 [10]: 13 µM (inactive)
- GI50 [11]: 14.6 µM
- GI50 [12]: 45.9 µM (inactive)
- GI50 [13]: 42.6 µM (inactive)
- GI50 [14]: 28.2 µM (inactive)
- GI50 [15]: 25.5 µM (inactive)
- GI50 [16]: 32.7 µM (inactive)
- GI50 [17]: 17.4 µM (inactive)
- GI50 [18]: 23.8 µM (inactive)
- GI50 [19]: 21.3 µM (inactive)
- GI50 [20]: 29.9 µM (inactive)
- GI50 [21]: 28.7 µM (inactive)
- GI50 [22]: 13.5 µM (inactive)
- GI50 [23]: 12.5 µM (inactive)
- GI50 [24]: 29.1 µM (inactive)
- GI50 [25]: 24.5 µM (inactive)
- GI50 [26]: 22.1 µM (inactive)
- GI50 [27]: 24.7 µM (inactive)
- GI50 [28]: 34.2 µM (inactive)
- GI50 [29]: 20.7 µM (inactive)
- GI50 [30]: 17.2 µM (inactive)
- GI50 [31]: 24.7 µM (inactive)
- GI50 [32]: 19.3 µM (inactive)
- GI50 [33]: 30.4 µM (inactive)
- GI50 [34]: 22.5 µM (inactive)
- GI50 [35]: 27.7 µM (inactive)
- GI50 [36]: 16.4 µM (inactive)
- GI50 [37]: 31.1 µM (inactive)
- GI50 [38]: 18.2 µM (inactive)
- GI50 [39]: 24.1 µM (inactive)
- GI50 [40]: 32.1 µM (inactive)

SMILES: NNC(=S)N/N=C(\CCCC(=O)NCCc1ccccc1)CC(=O)c1ccccc1
- GI50 [1]: > 100 µM (inactive)
- GI50 [2]: > 100 µM (inactive)
- GI50 [3]: > 100 µM (inactive)
- GI50 [4]: > 100 µM (inactive)
- GI50 [6]: > 100 µM (inactive)
- GI50 [7]: > 100 µM (inactive)
- GI50 [8]: > 100 µM (inactive)
- GI50 [41]: > 100 µM (inactive)
- GI50 [9]: > 100 µM (inactive)
- GI50 [10]: > 100 µM (inactive)
- GI50 [11]: > 100 µM
- GI50 [42]: > 100 µM (inactive)
- GI50 [43]: > 100 µM (inactive)
- GI50 [44]: > 100 µM (inactive)
- GI50 [45]: > 100 µM (inactive)
- GI50 [12]: > 100 µM (inactive)
- GI50 [13]: > 100 µM (inactive)
- GI50 [15]: > 100 µM (inactive)
- GI50 [16]: > 100 µM (inactive)
- GI50 [18]: > 100 µM (inactive)
- GI50 [19]: > 100 µM (inactive)
- GI50 [46]: > 100 µM (inactive)
- GI50 [47]: > 100 µM (inactive)
- GI50 [21]: > 100 µM (inactive)
- GI50 [22]: > 100 µM (inactive)
- GI50 [23]: > 100 µM (inactive)
- GI50 [24]: > 100 µM (inactive)
- GI50 [25]: > 100 µM (inactive)
- GI50 [26]: > 100 µM (inactive)
- GI50 [27]: > 100 µM (inactive)
- GI50 [29]: > 100 µM (inactive)
- GI50 [30]: > 100 µM (inactive)
- GI50 [48]: > 100 µM (inactive)
- GI50 [31]: > 100 µM (inactive)
- GI50 [32]: > 100 µM (inactive)
- GI50 [49]: > 100 µM (inactive)
- GI50 [33]: > 100 µM (inactive)
- GI50 [34]: > 100 µM (inactive)
- GI50 [50]: > 100 µM (inactive)
- GI50 [51]: > 100 µM (inactive)
- GI50 [52]: > 100 µM (inactive)
- GI50 [36]: > 100 µM (inactive)
- GI50 [37]: > 100 µM (inactive)
- GI50 [38]: > 100 µM (inactive)
- GI50 [53]: > 100 µM (inactive)
- GI50 [39]: > 100 µM (inactive)
- GI50 [40]: > 100 µM (inactive)
